Here are results for eleven compounds from the OPERA property sets (Mansouri et al. 2018).

On to `CNC12CCCCC1Cc1ccc(OC)cc12` (stereo unspecified), for which the log partition coefficient (logP) (as a rule, the decadic logarithm of the partition coefficient of the neutral form, usually between octanol and water) amounted to 3.54.

`CNC12CCCCC1Cc1ccccc12` (stereo unspecified) returned a logP of 3.38. To `CCNC12c3ccccc3CC1CCCC2C` (stereo unspecified) belongs 3.8. Then `CNC12CCCCC1c1ccccc1C2` (stereo unspecified), with 3.43; and `CNC12CCC(CN)CC1Cc1ccccc12` (stereo unspecified), with 1.84; and `CNC12CCCCCC1Cc1ccccc12` (stereo unspecified), with 3.77. On to `CNC12c3ccccc3CC1CCCC2C` (stereo unspecified), for which the logP turned out to be 3.44.

For the compound `CNCC1CCC2(NC)c3ccccc3CC2C1` (stereo unspecified), the log partition coefficient (logP) was 2.48. For the compound `C=C1c2ccccc2C2(NC)CCCCC12` (stereo unspecified), the logP turned out to be 3.79. To `NC12CCCC1Cc1ccccc12` (stereo unspecified) belongs 2.58; to `CNC12CCCCC1Cc1cc(OC)ccc12` (stereo unspecified), 3.51.
